Test results published in patent publication US12083115B2, “Methods for treating neurological symptoms associated with lysosomal storage diseases” (Genzyme Corporation, priority 2020, dated 2024).
Where two headings read alike, the source gives them in different places.

Assay: Study 1 Part 1: ascending single-dose PK in healthy men
Type: in vivo, human
Settings: for Tmax / AUC(0-inf) / AUC(0-t) / Cmax / Vd/F / half-life: male, human, plasma, oral; for Tmax: N = 6, read-out: tmax, median
From the text: Study 1 was a 2-part single-center trial in healthy adult male volunteers.
Part 1 of the study enrolled and randomized 55 healthy men (placebo, n=14; 2-, 5-, 15, 25-, 50, and 100-mg doses, n=6 each; 150-mg dose, n=5). Eight healthy men participated in Part 2. […]

## CC(C)(NC(=O)O[C@@H]1CN2CCC1CC2)c1csc(-c2ccc(F)cc2)n1 [Compound 2, (S)-quinuclidin-3-yl 2-(2-(4-fluorophenyl)thiazol-4-yl)propan-2-ylcarbamate]
2 mg single dose, N = 6
  CL/F, Geometric mean (CV): 6.3 (22.0) L/h
5 mg single dose, N = 6
  CL/F, Geometric mean (CV): 5.8 (17.3) L/h
15 mg single dose, N = 6
  CL/F, Geometric mean (CV): 5.6 (32.2) L/h
25 mg single dose, N = 6
  CL/F, Geometric mean (CV): 5.0 (25.3) L/h
  tmax, median: 5.00 h
50 mg single dose, N = 6
  CL/F, Geometric mean (CV): 5.5 (34.9) L/h
100 mg single dose, N = 6
  CL/F, Geometric mean (CV): 5.3 (23.4) L/h
  tmax, median: 3.00 h
150 mg single dose, N = 5
  CL/F, Geometric mean (CV): 5.6 (26.7) L/h
2 mg single dose
  Tmax: 3.5 h
2 mg, 2 mg single dose, N = 6, read-out: AUCinf, Geometric mean (CV)
  AUC(0-inf): 237 ng·h/mL
2 mg, 2 mg single dose, N = 6, read-out: AUCinf, Mean (SD)
  AUC(0-inf): 243 ng·h/mL
2 mg, 2 mg single dose, N = 6, read-out: AUClast, Geometric mean (CV)
  AUC(0-t): 209 ng·h/mL
2 mg, 2 mg single dose, N = 6, read-out: AUClast, Mean (SD)
  AUC(0-t): 214 ng·h/mL
2 mg, 2 mg single dose, N = 6, read-out: Cmax, Geometric mean (CV)
  Cmax: 5.6 ng/mL
2 mg, 2 mg single dose, N = 6, read-out: Cmax, Mean (SD)
  Cmax: 5.7 ng/mL
2 mg, 2 mg single dose, N = 6, read-out: Vss/F, Geometric mean (CV)
  Vd/F: 270 L
2 mg, 2 mg single dose, N = 6, read-out: Vss/F, Mean (SD)
  Vd/F: 275 L
2 mg, 2 mg single dose, N = 6, read-out: t1/2, Geometric mean (CV) (converted)
  half-life: 28.9 h
2 mg, 2 mg single dose, N = 6, read-out: t1/2, Mean (SD) (converted)
  half-life: 29.2 h
5 mg single dose
  Tmax: 5.5 h
5 mg, 5 mg single dose, N = 6, read-out: AUCinf, Geometric mean (CV)
  AUC(0-inf): 643 ng·h/mL
5 mg, 5 mg single dose, N = 6, read-out: AUCinf, Mean (SD)
  AUC(0-inf): 652 ng·h/mL
5 mg, 5 mg single dose, N = 6, read-out: AUClast, Geometric mean (CV)
  AUC(0-t): 556 ng·h/mL
5 mg, 5 mg single dose, N = 6, read-out: AUClast, Mean (SD)
  AUC(0-t): 560 ng·h/mL
5 mg, 5 mg single dose, N = 6, read-out: Cmax, Geometric mean (CV)
  Cmax: 14.6 ng/mL
5 mg, 5 mg single dose, N = 6, read-out: Cmax, Mean (SD)
  Cmax: 14.7 ng/mL
5 mg, 5 mg single dose, N = 6, read-out: Vss/F, Geometric mean (CV)
  Vd/F: 273 L
5 mg, 5 mg single dose, N = 6, read-out: Vss/F, Mean (SD)
  Vd/F: 274 L
5 mg, 5 mg single dose, N = 6, read-out: t1/2, Geometric mean (CV) (converted)
  half-life: 32.5 h
5 mg, 5 mg single dose, N = 6, read-out: t1/2, Mean (SD) (converted)
  half-life: 33.3 h
15 mg single dose
  Tmax: 3.5 h
15 mg, 15 mg single dose, N = 6, read-out: AUCinf, Geometric mean (CV)
  AUC(0-inf): 1990 ng·h/mL
15 mg, 15 mg single dose, N = 6, read-out: AUCinf, Mean (SD)
  AUC(0-inf): 2070 ng·h/mL
15 mg, 15 mg single dose, N = 6, read-out: AUClast, Geometric mean (CV)
  AUC(0-t): 1760 ng·h/mL
15 mg, 15 mg single dose, N = 6, read-out: AUClast, Mean (SD)
  AUC(0-t): 1830 ng·h/mL
15 mg, 15 mg single dose, N = 6, read-out: Cmax, Geometric mean (CV)
  Cmax: 50.7 ng/mL
15 mg, 15 mg single dose, N = 6, read-out: Cmax, Mean (SD)
  Cmax: 53 ng/mL
15 mg, 15 mg single dose, N = 6, read-out: Vss/F, Geometric mean (CV)
  Vd/F: 233 L
15 mg, 15 mg single dose, N = 6, read-out: Vss/F, Mean (SD)
  Vd/F: 245 L
15 mg, 15 mg single dose, N = 6, read-out: t1/2, Geometric mean (CV) (converted)
  half-life: 29 h
15 mg, 15 mg single dose, N = 6, read-out: t1/2, Mean (SD) (converted)
  half-life: 29.7 h
25 mg, 25 mg single dose, N = 6, read-out: AUCinf, Geometric mean (CV)
  AUC(0-inf): 3690 ng·h/mL
25 mg, 25 mg single dose, N = 6, read-out: AUCinf, Mean (SD)
  AUC(0-inf): 3810 ng·h/mL
25 mg, 25 mg single dose, N = 6, read-out: AUClast, Geometric mean (CV)
  AUC(0-t): 3240 ng·h/mL
25 mg, 25 mg single dose, N = 6, read-out: AUClast, Mean (SD)
  AUC(0-t): 3380 ng·h/mL
25 mg, 25 mg single dose, N = 6, read-out: Cmax, Geometric mean (CV)
  Cmax: 79.9 ng/mL
25 mg, 25 mg single dose, N = 6, read-out: Cmax, Mean (SD)
  Cmax: 84.4 ng/mL
25 mg, 25 mg single dose, N = 6, read-out: Vss/F, Geometric mean (CV)
  Vd/F: 228 L
25 mg, 25 mg single dose, N = 6, read-out: Vss/F, Mean (SD)
  Vd/F: 240 L
25 mg, 25 mg single dose, N = 6, read-out: t1/2, Geometric mean (CV) (converted)
  half-life: 29.8 h
25 mg, 25 mg single dose, N = 6, read-out: t1/2, Mean (SD) (converted)
  half-life: 30.2 h
50 mg single dose
  Tmax: 4 h
50 mg, 50 mg single dose, N = 6, read-out: AUCinf, Geometric mean (CV)
  AUC(0-inf): 6800 ng·h/mL
50 mg, 50 mg single dose, N = 6, read-out: AUCinf, Mean (SD)
  AUC(0-inf): 7130 ng·h/mL
50 mg, 50 mg single dose, N = 6, read-out: AUClast, Geometric mean (CV)
  AUC(0-t): 6070 ng·h/mL
50 mg, 50 mg single dose, N = 6, read-out: AUClast, Mean (SD)
  AUC(0-t): 6310 ng·h/mL
50 mg, 50 mg single dose, N = 6, read-out: Cmax, Geometric mean (CV)
  Cmax: 173 ng/mL
50 mg, 50 mg single dose, N = 6, read-out: Cmax, Mean (SD)
  Cmax: 181 ng/mL
50 mg, 50 mg single dose, N = 6, read-out: Vss/F, Geometric mean (CV)
  Vd/F: 232 L
50 mg, 50 mg single dose, N = 6, read-out: Vss/F, Mean (SD)
  Vd/F: 239 L
50 mg, 50 mg single dose, N = 6, read-out: t1/2, Geometric mean (CV) (converted)
  half-life: 28.5 h
50 mg, 50 mg single dose, N = 6, read-out: t1/2, Mean (SD) (converted)
  half-life: 28.9 h
100 mg, 100 mg single dose, N = 6, read-out: AUCinf, Geometric mean (CV)
  AUC(0-inf): 14100 ng·h/mL
100 mg, 100 mg single dose, N = 6, read-out: AUCinf, Mean (SD)
  AUC(0-inf): 14400 ng·h/mL
100 mg, 100 mg single dose, N = 6, read-out: AUClast, Geometric mean (CV)
  AUC(0-t): 12800 ng·h/mL
